# Laboratory results: patent EP1790345A1, “Triazin beta-secretase inhibitors” (Esbatech AG, priority 2005, dated 2007)
# pIC50: −log10 of the molar value.
# How the values were obtained:
# [1] = molecular target: recombinant BACE enzyme (Homo sapiens, UniProt P56817); assay: BACE FRET assay (in vitro); assay type: biochemical; details: concentration that reduces the activity of BACE to 50 %
# Source text: (§1) The tests performed were • a) Aβ1-40 (Sw) bioassay, which measures the amount of the amyoid peptide Aβ1-40 in the supernatant of Swedish APP695 transgenic HEK293 cells in the presence of the various BACE inhibitors via ELISA (enzyme-linked immunosorbent assay). In the table, the inhibitory concentration that reduces Aβ1-40 secretion to 50 % is indicated (IC50), or the % reduction of Aβ1-40 secretion at the indicated concentration. • b) FRET assay, which measures the activity of recombinant BACE enzyme in the presence of the various BACE inhibitors via a FRET (fluorescence resonance energy transfer)-based readout. In the table, the inhibitory concentration that reduces the activity of BACE to 50 % is indicated (IC50), or the % reduction of the activity of BACE at the indicated concentration. • c) An additional in silico test was performed for the compounds listed in Tables 1 to 3. The compounds were docked with the FFLD approach (Budin et al., Biol. Chem. 382, 1365-1372, 2001) and their binding energy was evaluated with the LIECE method (Huang and Caflisch, J. Med. Chem. 47, 5791-5797, 2004). The affinity evaluated with LIECE is in the low micromolar range for most of these compounds.
# [2] = test system: Swedish APP695 transgenic HEK293 cells; assay: Aβ1-40 (Sw) bioassay (ELISA of Aβ1-40 in cell supernatant); assay type: cell-based; details: for % reduction of Aβ1-40 secretion: Swedish APP695 transgenic HEK293 cells, ELISA; for pIC50: Homo sapiens, HEK293, concentration that reduces Aβ1-40 secretion to 50 %, read-out: IC50 Aβ1-40(sw) bioassay (cell-based)
# Source text: as §1
# Sequence of recombinant BACE enzyme (P56817 46-501, species assumed): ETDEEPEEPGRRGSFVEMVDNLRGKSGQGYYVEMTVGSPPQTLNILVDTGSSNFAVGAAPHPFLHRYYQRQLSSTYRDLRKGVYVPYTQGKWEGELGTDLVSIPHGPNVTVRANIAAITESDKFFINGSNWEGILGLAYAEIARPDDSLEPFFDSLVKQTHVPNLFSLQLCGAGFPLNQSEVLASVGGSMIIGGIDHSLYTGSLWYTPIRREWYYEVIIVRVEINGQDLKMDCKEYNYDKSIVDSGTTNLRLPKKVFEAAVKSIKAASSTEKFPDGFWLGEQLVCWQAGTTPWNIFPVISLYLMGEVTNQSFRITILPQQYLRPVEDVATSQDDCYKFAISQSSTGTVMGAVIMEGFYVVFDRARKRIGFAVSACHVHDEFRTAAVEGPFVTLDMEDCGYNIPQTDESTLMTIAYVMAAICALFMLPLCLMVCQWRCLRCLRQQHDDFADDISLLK
Structure (SMILES),pIC50 [1],further results
Oc1c(Cl)cc(Cl)cc1/C=N/Nc1nc(Nc2ccccc2)nc(Nc2ccccc2)n1 [Compound 201C08],4.95,% reduction of Aβ1-40 secretion ([2]; at 5 µM): 25% (5 µM)
Oc1c(I)cc(I)cc1/C=N/Nc1nc(Nc2ccccc2)nc(Nc2ccccc2)n1 [Compound 201G06],4.59,% reduction of Aβ1-40 secretion ([2]; at 5 µM): No (5 µM)
Oc1c(Cl)cc(Br)cc1/C=N/Nc1nc(Nc2ccccc2)nc(Nc2ccccc2)n1 [Compound 201G11],4.92,% reduction of Aβ1-40 secretion ([2]; at 5 µM): 26% (5 µM)
Oc1c(Br)cc(/C=N/Nc2nc(Nc3ccccc3)nc(Nc3ccccc3)n2)cc1Br [Compound 202E09],4.27,% reduction of Aβ1-40 secretion ([2]; at 5 µM): 25% (5 µM)
Cc1ccc(C)c(Nc2nc(N/N=C/c3cc(Br)c(O)c(Br)c3O)nc(N3CCOCC3)n2)c1 [Compound 205A04],4.09,% reduction of Aβ1-40 secretion ([2]; at 5 µM): No (5 µM)
Cc1ccc(Nc2nc(N/N=C/c3cc(Br)cc(Br)c3O)nc(N3CCOCC3)n2)cc1 [Compound 205C07],4.32,% reduction of Aβ1-40 secretion ([2]; at 50 µM): No (50 µM)
Cc1ccc(Nc2nc(N/N=C/c3cc(Br)cc(Br)c3O)nc(N3CCOCC3)n2)cc1Cl [Compound 206E02],4.69,% reduction of Aβ1-40 secretion ([2]; at 50 µM): 27% (50 µM)
O=C(O)c1cc(-c2ccc(/C=N/Nc3nc(Nc4ccccc4)nc(N4CCCCC4)n3)o2)ccc1Cl [Compound 250A05],3.85,pIC50 [2]: 4.70 to 5.00
COc1ccc(Nc2nc(NN=Cc3ccc(-c4cccc(C(=O)O)c4)o3)nc(Nc3ccccc3)n2)cc1 [Compound 250B04],4.18,pIC50 [2]: 4.70 to 5.00
O=C(O)c1cc(-c2ccc(C=NNc3nc(Nc4ccc(F)cc4)nc(N4CCCCC4)n3)o2)ccc1O [Compound 250B05],4.51,pIC50 [2]: 4.70 to 5.00
O=C(O)c1cc(-c2ccc(C=NNc3nc(Nc4ccc(F)cc4)nc(N4CCOCC4)n3)o2)ccc1Cl [Compound 250C04],5.15,% reduction of Aβ1-40 secretion ([2]; at 25 µM): 0 (25 µM)
Oc1c(Br)cc(Br)cc1/C=N/Nc1nc(Nc2ccccc2)nc(Nc2ccccc2)n1 [Compound 251A07],4.97,–
COc1ccc(Nc2nc(N/N=C/c3cc(Br)cc(Br)c3O)nc(N3CCOCC3)n2)cc1 [Compound 251A09],4.46,–
O=[N+]([O-])c1cc(-c2ccc(/C=N/Nc3nc(N4CCOCC4)nc(N4CCOCC4)n3)o2)ccc1Cl [Compound 251A10],3.91,–
Oc1c(Br)cc(Br)cc1/C=N/Nc1nc(Nc2ccccc2)nc(N2CCCC2)n1 [Compound 251B07],4.34,–
CNc1nc(N/N=C/c2ccc(-c3ccc([N+](=O)[O-])cc3)o2)nc(Nc2ccccc2)n1 [Compound 251C08],4.61,–
Cc1ccc(Cl)cc1-c1ccc(/C=N/Nc2nc(N3CCOCC3)nc(N3CCOCC3)n2)o1 [Compound 251C10],< 4.00,–
Clc1ccccc1-c1ccc(/C=N/Nc2nc(Nc3ccccc3)nc(Nc3ccccc3)n2)o1 [Compound 251F09],3.72,–
Oc1c(Br)cc(/C=N/Nc2nc(N3CCCCC3)nc(N3CCCCC3)n2)c(O)c1Br [Compound 251G09],3.77,–
